≈ marks a conversion by molar mass, not a printed value. One block for each molecule: values may come before it. Calls of active or inactive are those of the source. No cut-off for these calls is given here. Non-standard residues stand in square brackets, D forms with d. Residues, ends and D or L forms follow the SMILES beside them. *: point of attachment. NMeVal(β-OH) = CN[C@H](C(=O)O)C(C)(C)O; NH(4-OH-phenethyl) = Oc1ccc(CCN*)cc1; Val(3-OH) = CC(C)(O)[C@H](N)C(=O)O; NMeF = CN[C@@H](Cc1ccccc1)C(=O)O; NMeL = CN[C@@H](CC(C)C)C(=O)O; NHPhenethyl = c1ccc(CCN*)cc1; NMeV = CN[C@H](C(=O)O)C(C)C; NMeA = CN[C@@H](C)C(=O)O
Key:
[1] = Passive permeability of the compound at 500 uM after 5 hrs by PAMPA; type: ADME
[2] = Half life in Galleria mellonella hemolymph plasma at 0.5 mM by HPLC-MS method; type: ADME, cell-free
[3] = tested on: Trypanosoma brucei rhodesiense; assay: Antiprotozoal activity against trypomastigote stage of Trypanosoma brucei rhodesiense STIB900 after 72 hrs by Alamar Blue assay; type: functional, organism-based
[4] = tested on: Staphylococcus aureus; assay: Antibacterial activity against Staphylococcus aureus ATCC 29213 assessed as growth inhibition up to 128 ug/ml; type: functional, organism-based
[5] = tested on: Staphylococcus aureus; assay: Antibacterial activity against methicillin-resistant Staphylococcus aureus ATCC 43300 assessed as growth inhibition up to 128 ug/ml; type: functional, organism-based
[6] = tested on: Enterococcus faecalis; assay: Antibacterial activity against Enterococcus faecalis ATCC 29212 assessed as growth inhibition up to 128 ug/ml; type: functional, organism-based
[7] = tested on: Micrococcus luteus; assay: Antibacterial activity against Micrococcus luteus ATCC 9341 assessed as growth inhibition up to 128 ug/ml; type: functional, organism-based
[8] = tested on: Escherichia coli; assay: Antibacterial activity against Escherichia coli ATCC 25922 assessed as growth inhibition up to 128 ug/ml; type: functional, organism-based
[9] = tested on: Pseudomonas aeruginosa; assay: Antibacterial activity against Pseudomonas aeruginosa ATCC 27853 assessed as growth inhibition up to 128 ug/ml; type: functional, organism-based
[10] = tested on: L6; assay: Cytotoxicity against rat L6 cells after 72 hrs by Alamar Blue assay; type: cell-based; details: L6, 72 h
[11] = Drug level in Sprague-Dawley rat liver microsomes assessed as CYP450-mediated compound formation treated with (S)-2-((S)-N,3-dimethyl-2-(methylamino)butanamido)-N,3-dimethyl-N-((S)-3-methyl-1-(methyl((S)-3-methyl-1-oxo-1-(phenethylamino)butan-2-yl)amino)-1-oxobutan-2-yl)butanamide at 1 mM preincubated with NADPH regenerating system followed by microsome addition measured after 15 to 60 mins by HR-HPLC-MS method; type: ADME; details: 1000 µM
[12] = Drug metabolism in Sprague-Dawley rat liver microsomes assessed as CYP450-mediated (S)-2-amino-N-((S)-1-((S)-1-((S)-1-(4-hydroxyphenethylamino)-3-methyl-1-oxobutan-2-ylamino)-3-methyl-1-oxobutan-2-ylamino)-3-methyl-1-oxobutan-2-yl)-3-methylbutanamide formation at 1 mM preincubated with NADPH regenerating system followed by microsome addition measured after 15 to 60 mins by HR-HPLC-MS method; type: ADME; details: 1000 µM
[13] = Drug metabolism in Sprague-Dawley rat liver microsomes assessed as CYP450-mediated (S)-2-((S)-2-amino-3-methylbutanamido)-3-hydroxy-3-methyl-N-((S)-3-methyl-1-((S)-3-methyl-1-oxo-1-(phenethylamino)butan-2-ylamino)-1-oxobutan-2-yl)butanamide formation at 1 mM preincubated with NADPH regenerating system followed by microsome addition measured after 15 to 60 mins by HR-HPLC-MS method; type: ADME; details: 1000 µM
[14] = Drug metabolism in Sprague-Dawley rat liver microsomes assessed as CYP450-mediated (S)-2-((S)-2-((S)-2-amino-3-methylbutanamido)-3-methylbutanamido)-3-hydroxy-3-methyl-N-((S)-3-methyl-1-oxo-1-(phenethylamino)butan-2-yl)butanamide formation at 1 mM preincubated with NADPH regenerating system followed by microsome addition measured after 15 to 60 mins by HR-HPLC-MS method; type: ADME; details: 1000 µM
[15] = tested on: Plasmodium falciparum; assay: Antiprotozoal activity against IEF stage of Plasmodium falciparum NF54 after 48 hrs by [3H]-hypoxanthine incorporation assay; type: functional, organism-based
[16] = Drug level in Sprague-Dawley rat liver microsomes assessed as CYP450-mediated compound formation treated with (S)-2-amino-3-methyl-N-((S)-3-methyl-1-((S)-3-methyl-1-((S)-3-methyl-1-oxo-1-(phenethylamino)butan-2-ylamino)-1-oxobutan-2-ylamino)-1-oxobutan-2-yl)butanamide at 1 mM preincubated with NADPH regenerating system followed by microsome addition measured after 15 to 60 mins by HR-HPLC-MS method; type: ADME; details: 1000 µM
[17] = Drug metabolism in Sprague-Dawley rat liver microsomes assessed as CYP450-mediated (S)-2-((S)-N,3-dimethyl-2-(methylamino)butanamido)-N-((S)-1-(((S)-1-(4-hydroxyphenethylamino)-3-methyl-1-oxobutan-2-yl)(methyl)amino)-3-methyl-1-oxobutan-2-yl)-N,3-dimethylbutanamide formation at 1 mM preincubated with NADPH regenerating system followed by microsome addition measured after 15 to 60 mins by HR-HPLC-MS method; type: ADME; details: 1000 µM
[18] = Drug metabolism in Sprague-Dawley rat liver microsomes assessed as CYP450-mediated (S)-3-hydroxy-N,3-dimethyl-N-((S)-3-methyl-1-(methyl((S)-3-methyl-1-(methyl((S)-3-methyl-1-oxo-1-(phenethylamino)butan-2-yl)amino)-1-oxobutan-2-yl)amino)-1-oxobutan-2-yl)-2-(methylamino)butanamide formation at 1 mM preincubated with NADPH regenerating system followed by microsome addition measured after 15 to 60 mins by HR-HPLC-MS method; type: ADME; details: 1000 µM

permeability [1]: Impermeable
Structure (SMILES): CC(C)C[C@H](NC(=O)[C@@H](NC(=O)[C@@H](NC(=O)[C@@H](N)C(C)C)C(C)C)C(C)C)C(=O)NCCc1ccccc1 (H-VVVL-NHPhenethyl)
half-life at 500 µM [2]: 30 min

permeability [1]: Permeable
Structure (SMILES): CN[C@H](C(=O)N(C)[C@H](C(=O)N(C)[C@H](C(=O)N(C)[C@@H](Cc1ccccc1)C(=O)NCCc1ccccc1)C(C)C)C(C)C)C(C)C (H-[NMeV][NMeV][NMeV][NMeF]-NHPhenethyl)

Structure (SMILES): CN[C@@H](CC(C)C)C(=O)N(C)[C@@H](CC(C)C)C(=O)N(C)[C@@H](CC(C)C)C(=O)N(C)[C@@H](CC(C)C)C(=O)NCCc1ccccc1
IC50 ([3]; STIB900, 72 h): 1.4 to 2.1 µg/mL (≈ 2.22 to 3.33 µM) | growth inhibition (GI) [4]: inactive | growth inhibition (GI) [5]: inactive | growth inhibition (GI) [6]: inactive | growth inhibition (GI) [7]: inactive | growth inhibition (GI) [8]: inactive | growth inhibition (GI) [9]: inactive | IC50 [10]: 16.7 µg/mL (≈ 26.5 µM)

Drug metabolism [11]: Metabolite_Detected
Structure (SMILES): CN[C@H](C(=O)N(C)[C@H](C(=O)N(C)[C@H](C(=O)N(C)[C@H](C(=O)NCCc1ccccc1)C(C)C)C(C)C)C(C)C)C(C)(C)O (H-[NMeVal(β-OH)][NMeV][NMeV][NMeV]-NHPhenethyl)

permeability [1]: Permeable
Structure (SMILES): CN[C@H](C(=O)N(C)[C@H](C(=O)N(C)[C@H](C(=O)N(C)[C@@H](CC(C)C)C(=O)NCCc1ccccc1)C(C)C)C(C)C)C(C)C (H-[NMeV][NMeV][NMeV][NMeL]-NHPhenethyl)
half-life at 500 µM [2]: > 240 min

Drug metabolism [12]: Metabolite_Detected | Drug metabolism [13]: Metabolite_Detected | Drug metabolism [14]: Metabolite_Detected
Structure (SMILES): CC(C)[C@H](N)C(=O)N[C@H](C(=O)N[C@H](C(=O)N[C@H](C(=O)NCCc1ccccc1)C(C)C)C(C)C)C(C)C (H-VVVV-NHPhenethyl)
half-life at 500 µM [2]: 30 min

permeability [1]: Impermeable
Structure (SMILES): CC(C)[C@H](N)C(=O)N[C@H](C(=O)N[C@H](C(=O)N[C@@H](Cc1ccccc1)C(=O)NCCc1ccccc1)C(C)C)C(C)C (H-VVVF-NHPhenethyl)

IC50 [15]: 0.14 µg/mL (≈ 0.159 µM)
Structure (SMILES): CN[C@@H](Cc1ccccc1)C(=O)N[C@H](C(=O)N(C)[C@H](C(=O)N(C)[C@H](C(=O)N(C)[C@H](C(=O)N(C)[C@@H](Cc1ccccc1)C(=O)NCCc1ccccc1)C(C)C)C(C)C)C(C)C)C(C)C (H-[NMeF]V[NMeV][NMeV][NMeV][NMeF]-NHPhenethyl)

Drug metabolism [16]: Metabolite_Detected
Structure (SMILES): CC(C)[C@H](N)C(=O)N[C@H](C(=O)N[C@H](C(=O)N[C@H](C(=O)NCCc1ccccc1)C(C)C)C(C)C)C(C)(C)O (H-V[Val(3-OH)]VV-NHPhenethyl)

Drug metabolism [16]: Metabolite_Detected
Structure (SMILES): CC(C)[C@H](N)C(=O)N[C@H](C(=O)N[C@H](C(=O)N[C@H](C(=O)NCCc1ccccc1)C(C)C)C(C)(C)O)C(C)C (H-VV[Val(3-OH)]V-NHPhenethyl)

Structure (SMILES): CN[C@@H](CC(C)C)C(=O)N(C)[C@@H](CC(C)C)C(=O)N(C)[C@@H](CC(C)C)C(=O)N(C)[C@@H](CC(C)C)C(=O)NCCc1ccc(O)cc1 (H-[NMeL][NMeL][NMeL][NMeL]-{NH(4-OH-phenethyl)})
growth inhibition (GI) [4]: inactive | growth inhibition (GI) [5]: inactive | growth inhibition (GI) [6]: inactive | growth inhibition (GI) [7]: inactive | growth inhibition (GI) [8]: inactive | growth inhibition (GI) [9]: inactive | IC50 [10]: 30.6 µg/mL (≈ 47.4 µM)

Drug metabolism [11]: Metabolite_Detected
Structure (SMILES): CN[C@H](C(=O)N(C)[C@H](C(=O)N(C)[C@H](C(=O)N(C)[C@H](C(=O)NCCc1ccc(O)cc1)C(C)C)C(C)C)C(C)C)C(C)C (H-[NMeV][NMeV][NMeV][NMeV]-{NH(4-OH-phenethyl)})

Structure (SMILES): CN[C@H](C(=O)N(C)[C@H](C(=O)N(C)[C@H](C(=O)N(C)[C@H](C(=O)NCCc1ccccc1)C(C)C)C(C)C)C(C)C)C(C)C (H-[NMeV][NMeV][NMeV][NMeV]-NHPhenethyl)
Activity [3]: Active | growth inhibition (GI) [4]: inactive | growth inhibition (GI) [5]: inactive | growth inhibition (GI) [6]: inactive | growth inhibition (GI) [7]: inactive | growth inhibition (GI) [8]: inactive | growth inhibition (GI) [9]: inactive | half-life at 500 µM [2]: > 240 min | Drug metabolism [17]: Metabolite_Detected | Drug metabolism [18]: Metabolite_Detected

Structure (SMILES): CN[C@@H](Cc1ccccc1)C(=O)N(C)[C@@H](Cc1ccccc1)C(=O)N(C)[C@@H](Cc1ccccc1)C(=O)N(C)[C@@H](Cc1ccccc1)C(=O)N(C)[C@@H](Cc1ccccc1)C(=O)NCCc1ccccc1 (H-[NMeF][NMeF][NMeF][NMeF][NMeF]-NHPhenethyl)
IC50 [15]: 0.2 µg/mL (≈ 0.216 µM) | Activity [3]: Active | growth inhibition (GI) [4]: inactive | growth inhibition (GI) [5]: inactive | growth inhibition (GI) [6]: inactive | growth inhibition (GI) [7]: inactive | growth inhibition (GI) [8]: inactive | growth inhibition (GI) [9]: inactive

Drug metabolism [16]: Metabolite_Detected
Structure (SMILES): CC(C)[C@H](N)C(=O)N[C@H](C(=O)N[C@H](C(=O)N[C@H](C(=O)NCCc1ccc(O)cc1)C(C)C)C(C)C)C(C)C (H-VVVV-{NH(4-OH-phenethyl)})

IC50 [15]: 1.85 µg/mL (≈ 3.15 µM)
Structure (SMILES): CN[C@@H](C)C(=O)N(C)[C@@H](CC(C)C)C(=O)N(C)[C@@H](CC(C)C)C(=O)N(C)[C@@H](CC(C)C)C(=O)NCCc1ccccc1 (H-[NMeA][NMeL][NMeL][NMeL]-NHPhenethyl)

IC50 [15]: 31 µg/mL (≈ 52.7 µM)
Structure (SMILES): CN[C@@H](CC(C)C)C(=O)N(C)[C@@H](CC(C)C)C(=O)N(C)[C@@H](CC(C)C)C(=O)N(C)[C@@H](C)C(=O)NCCc1ccccc1 (H-[NMeL][NMeL][NMeL][NMeA]-NHPhenethyl)

— ChEMBL document CHEMBL4177762, “Combined Approach of Backbone Amide Linking and On-Resin N-Methylation for the Synthesis of Bioactive and Metabolically Stable Peptides” (J Med Chem, 2018)
